Source: patent publication US12173088B2, “Anti-microbial peptides” (priority 2018, dated 2024)
Values after ≈ are worked out from the molar mass of the structure shown. Where two headings read alike, the source gives them in different places.

Assays:
S. aureus USA300 [1] = assay: microbe, parasite or virus in culture; assay type: cell-based, Staphylococcus aureus; settings: Staphylococcus aureus, MRSA / USA300; Table 14; read-out: MIC S. aureus USA300 (MRSA)
Outline: (§1)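 Broth microdilution: log-phase cultures in tryptic soy broth diluted to OD600 0.001, exposed to two-fold diluted peptides at 37° C overnight, growth read at 630 nm. Medium effects on S. aureus USA300 tested with up to 200 mM NaCl, 2 mM CaCl2, 5-10% human serum, mouse plasma, fluids or tissue homogenate supernatants.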

E. faecium V286-17 (VRE) = assay: microbe, parasite or virus in culture; assay type: cell-based, Enterococcus faecium; settings: Enterococcus faecium, VRE, read-out: MIC E. faecium V286-17 (VRE)
Outline: as §1

P. aeruginosa E411-17 = assay: microbe, parasite or virus in culture; assay type: cell-based, Pseudomonas aeruginosa; settings: Pseudomonas aeruginosa, E41117; Table 14; read-out: MIC P. aeruginosa E411-17
Outline: as §1

K. pneumoniae E406-17 = assay: microbe, parasite or virus in culture; assay type: cell-based, Klebsiella pneumoniae; settings: Klebsiella pneumoniae, E40617; Table 14; read-out: MIC K. pneumoniae E406-17
Outline: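 Broth microdilution in tryptic soy broth: log-phase cultures (OD600 ≈0.5) diluted to OD600 0.001, given two-fold peptide dilutions, incubated overnight at 37° C. Growth read at 630 nm.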

E. coli E423-17 = assay: microbe, parasite or virus in culture; assay type: cell-based, Escherichia coli; settings: Escherichia coli, E42317; Table 14; read-out: MIC E. coli E423-17
Outline: as §1

A. baumannii B26-16 = assay: microbe, parasite or virus in culture; assay type: cell-based, Acinetobacter baumannii; settings: Acinetobacter baumannii, B2616; Table 14; read-out: MIC A. baumannii B26-16
Outline: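 Broth microdilution in tryptic soy broth: log-phase cultures diluted to 0.001 OD600 and exposed to peptide dilutions overnight at 37 °C, growth read at 630 nm. For S. aureus USA300, medium effects tested at pH 6.8, 7.2 and 8.0, with 150 mM NaCl, or with 5–10% human serum, mouse plasma or peritoneal fluid.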

[2] = test system: K. pneumoniae E406-17 biofilms; assay: Biofilm disruption and attachment; assay type: cell-based, Klebsiella pneumoniae
Procedure: Briefly, S. aureus USA300 and K. pneumoniae E406-17 (10^5 CFU/mL) were prepared from exponentially phase. Each well of the microtiter plate (Corning Costar® Cat No. 3595) was aliquoted with 180 μL of inoculum and the plates were incubated at 37° C. for 48 hours to form biofilm. Culture treated with water served as a positive control while media without bacterial inoculation served as the negative control. Media was aspirated post incubation and the attached biofilms were washed with 1×PBS to remove the planktonic bacteria. Each well was aliquoted with 20 μL of 10× peptide solution and 180 μL of fresh TSB media, plates were further incubated at 37° C. for 24 hours. Media aspirated from the wells and washed with 1×PBS to remove planktonic cells. Live cells in the biofilms were quantitated using XTT [2,3-bis(2-methyloxy-4-nitro-5-sulfophenyl)-2H-tertazolium-5-carboxanilide] assay by following the manufacturer's instructions with modifications. 180 μL of fresh TSB and 20 μL of XTT solution was added to each well and the plates further incubated at 37° C. for 2 hours. Absorbance was read at 450 nm (only media with XTT containing wells served as the blank) using a Chromate® microtiter plate reader. Percentage biofilm growth for the peptide was plotted by assuming 100% biofilm growth in bacterial control alone. The data is mean±SD, the significance at […]. […]

S. aureus M838-17 (MRSA) = assay: microbe, parasite or virus in culture; assay type: cell-based, Staphylococcus aureus; settings: Staphylococcus aureus, MRSA; Table 7; by weight; read-out: MIC S. aureus M838-17 (MRSA)
Outline: as §1

[3] = test system: clinical strains of methicillin-resistant and susceptible S. aureus; assay: microbe, parasite or virus in culture; settings: for MIC: Staphylococcus aureus
Procedure: The antibacterial activity of peptides was evaluated using a standard broth microdilution protocol with minor modifications (Mishra, et al. (2017) Acta Biomater., 49:316-328). In brief, logarithmic phase bacterial cultures (i.e., optical density at 600 nm≈0.5) were diluted to 0.001 OD and aliquoted 90 μL per well into a 96-well polystyrene microplate. Added 10 μL peptides per well with various concentrations, plates were incubated at 37° C., overnight. Post incubation the plates are read at 630 nm using a ChroMate® Microplate Reader (GMI). […] To study the influence of medium conditions on the antimicrobial activity of peptides against S. aureus USA300 at different pHs (6.8, 7.2, and 8.0), 150 mM sodium chloride (NaCl), 5-10% of human serum, mouse plasma, and peritoneal fluid were included into the assays.

S. aureus USA300 [4] = assay type: cell-based, Staphylococcus aureus
Procedure: The experiment was carried out similar to the MIC determination with a few modifications (Ge, et al. (1999) Antimicrob. Agents Chemother., 43:782-788; Ling, et al. (2015) Nature 520:388). In short, an exponential phase S. aureus USA300 culture (i.e., optical density at 600 nm≈0.5) was diluted and partitioned into a 96-well polystyrene microplate with ˜10^5 colony forming units (CFU) per well (90 μL aliquots). After treatment with 10 μL of peptide or antibiotics solutions at various concentrations, microplates were incubated at 37° C. overnight and read on a ChroMate® 4300 Microplate Reader at 630 nm (GMI). […] Plots were made to determine the increase in the fold change (MIC on given passage/MIC recorded in first day of passage).
This experiment was performed similar to the MIC determination with a few modifications. […] After treatment with 10 μL of peptide or antibiotics solutions at various concentrations, microplates were incubated at 37° C. overnight and read on a ChroMate® Microplate Reader at 630 nm (GMI). […] The increase in the fold change (MIC on given passage/MIC recorded in first day of passage) used to determine the degree of drug resistance.

[5] = test system: S. aureus USA300 biofilms; settings: 48-hour biofilms
Procedure: The antibiofilm activity of the peptide against 24 hours established biofilms was evaluated. In short, S. aureus USA300 (10^5 CFU/mL) was made from exponential phase bacteria in TSB media and 200 μL was distributed to each well of the microtiter plate (Corning Costar Cat No. 3595). The plates were incubated at 37° C. for 24 hours to form biofilm. Culture treated with water served as a positive control while media without bacterial inoculation served as the negative control. Media was then pipetted out and the attached biofilms were washed with 1×PBS to remove the planktonic bacteria. Each well of the plate was then filled with 20 μL of 10× peptide solution and 180 μL of fresh TSB media and the plates were further incubated at 37° C. for 24 hours. Media was then pipetted out and the wells were washed with 1×PBS to remove planktonic cells. Live cells in the biofilms were then quantitated using XTT [2,3-bis(2-methyloxy-4-nitro-5-sulfophenyl)-2H-tertazolium-5-carboxanilide] assay by following the manufacturer's instructions with modifications. 180 μL of fresh TSB and 20 μL of XTT solution was added to each well and the plates were again incubated at 37° C. for 2 hours. Absorbance at 450 nm (only media with XTT containing wells served as the blank) was obtained using a ChroMate® microtiter plate reader. […]

C[C@@H](O)[C@H]1C(=O)N2C(C(=O)O)=C(S[C@@H]3CN[C@H](CNS(N)(=O)=O)C3)[C@H](C)[C@H]12 [Doripenem, reference compound]
MIC (S. aureus USA300 [1]): 0.25 µM (≈ 0.105 µg/mL) | MIC (E. faecium V286-17 (VRE); Table 14): > 8 µM | MIC (P. aeruginosa E411-17): 2 µM (≈ 0.841 µg/mL) | MIC (K. pneumoniae E406-17): 0.5 µM (≈ 0.21 µg/mL) | MIC (E. coli E423-17): 1 µM (≈ 0.421 µg/mL) | MIC (A. baumannii B26-16): > 8 µM | Adhesion/attachment of K. pneumoniae [2]: showed no effect | Effect on 48-hour preformed biofilms ([2]; 48-hour biofilms): showed no effect

CCOc1ccc2ccccc2c1C(=O)N[C@@H]1C(=O)N2[C@@H]1SC(C)(C)[C@@H]2C(=O)O [Nafcillin]
MIC (S. aureus M838-17 (MRSA)): 0.78 to 1.56 µM (≈ 0.323 to 0.647 µg/mL) | MIC (E. faecium V286-17 (VRE); Table 7): > 12.5 µM | MIC ([3]; MSSA, strain B243-16 MSSA): < 0.25 µM | MIC ([3]; MSSA, strain B254-16 MSSA): < 0.25 µM | MIC ([3]; MSSA, strain B255-16 MSSA): < 0.25 µM | MIC ([3]; MSSA, strain B262-16 MSSA): 0.5 µM (≈ 0.207 µg/mL) | MIC ([3]; MSSA, strain B269-16 MSSA): 0.5 µM (≈ 0.207 µg/mL) | MIC ([3]; NEWMAN, strain Newman): 0.25 µM (≈ 0.104 µg/mL) | MIC ([3]; USA200, strain USA200): > 8 µM | MIC ([3]; USA300, strain USA300): 0.5 µM (≈ 0.207 µg/mL) | MIC ([3]; USA400, strain USA400): 1 µM (≈ 0.414 µg/mL) | MIC ([3]; strain M106-16): 2 µM (≈ 0.829 µg/mL) | MIC ([3]; strain M108-16): 1 µM (≈ 0.414 µg/mL) | MIC ([3]; strain M109-16): 1 µM (≈ 0.414 µg/mL) | MIC ([3]; strain M111-16): 8 µM (≈ 3.32 µg/mL) | MIC ([3]; strain M112-16): 0.5 µM (≈ 0.207 µg/mL) | MIC ([3]; strain M113-16): 0.5 µM (≈ 0.207 µg/mL) | MIC ([3]; strain M114-16): 0.5 µM (≈ 0.207 µg/mL) | MIC ([3]; strain M116-16): < 0.25 µM | MIC ([3]; strain M117-16): 0.5 µM (≈ 0.207 µg/mL) | MIC ([3]; strain M118-16): 0.5 µM (≈ 0.207 µg/mL) | MIC ([3]; strain M119-16): 1 µM (≈ 0.414 µg/mL) | MIC ([3]; strain M120-16): 2 µM (≈ 0.829 µg/mL) | MIC ([3]; strain M121-16): 1 µM (≈ 0.414 µg/mL) | MIC ([3]; strain M122-16): 1 µM (≈ 0.414 µg/mL) | MIC ([3]; strain M123-16): 4 µM (≈ 1.66 µg/mL) | MIC ([3]; strain M126-16): 1 µM (≈ 0.414 µg/mL) | MIC ([3]; strain M127-16): 2 µM (≈ 0.829 µg/mL) | MIC ([3]; strain M128-16): 8 µM (≈ 3.32 µg/mL) | MIC ([3]; strain M129-16): 1 µM (≈ 0.414 µg/mL) | MIC ([3]; strain M130-16): 1 µM (≈ 0.414 µg/mL) | MIC ([3]; strain UAMS-1): 4 µM (≈ 1.66 µg/mL) | MIC ([3]; strain mu50): > 8 µM | Inhibition of Mu50 and USA200 strains ([3]; nafcillin at 8 μM): did not inhibit | MIC increase (S. aureus USA300 [4]; after 16 passages, sub-MIC level): 1000 fold | Resistance development (S. aureus USA300 [4]; multiple passage experiment): developed resistance | Activity against 48-hour biofilms [5]: did not
